From patent US20230278972A1, “SUBSTITUTED HALOALKYL SULFONANILIDE HERBICIDES” (FMC Corporation, priority 2020, published 2023) come the findings set out here.

Format in all cases: in vivo
Assay [1] has as its system Ryegrass, Italian (Italian ryegrass, Lolium multiflorum). The assay can be described thus: Test A1 preemergence, Ryegrass, Italian. A digest of the protocol:
(§1)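 Pre: seeds in loam/sand blend, directed soil spray. Post: potted plants, same soil, 2–10 cm, 1–2 leaf stage. Chemicals in non-phytotoxic solvent + surfactant for both.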

In the next assay the test system is kochia (Bassia scoparia). The assay is described as follows: Test A1 preemergence, kochia. In a few lines:
as §1

Assay [2] relates to Foxtail, Giant (giant foxtail, Setaria faberi). The assay is described as follows: Test A1 preemergence, Foxtail, Giant. A digest of the protocol:
as §1

Assay [3] shares this test system. The assay is described as follows: Test A1 postemergence, Foxtail, Giant. The conditions noted are these: Postemergence. In a few lines: (§2)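 Plants were grown in a loam soil/sand blend, with test chemicals formulated in a non-phytotoxic solvent mixture containing surfactant. Preemergence treatment (corn) was a directed soil spray at planting. Postemergence treatment was applied to plants 2 to 10 cm tall at the one- to two-leaf stage.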

Another assay relates to rice (Oryza sativa). The assay is described as follows: Test B1 flooded paddy test, rice. The note with it: 250 g ai/ha, Flood, applied to paddy water, 2-leaf stage, visually evaluated after 10 to 14 days. From the text:
A dash (-) response means no test result.

For assay [4], the system named is wheat (Triticum aestivum). The assay can be described thus: Test A1 preemergence, wheat. In a few lines:
as §1

A further assay concerns corn (Zea mays). The assay is described as follows: Test A1 postemergence, corn. The conditions noted are these: Postemergence. A digest of the protocol:
as §1

The subject of assay [5] is horseweed (Erigeron canadensis). The assay can be described thus: Test A1 postemergence, horseweed. The conditions noted are these: Postemergence. A digest of the protocol: as §2
Another assay concerns soybean (Glycine max). The assay can be described thus: Test A1 postemergence, soybean. The note with it: Postemergence. A digest of the protocol: as §2
[6] abbreviates: 31 g ai/ha, 0 to 100 scale (0 no effect, 100 complete control).
[7] abbreviates: 125 g ai/ha, 0 to 100 scale, 0 no effect, 100 complete control.
[8] abbreviates: 31 g ai/ha, 0 to 100 scale (0 no effect, 100 complete control), 10 days.

Consider `Cc1cc(C)c(C2=NOC3CCCCCC23)cc1NS(=O)(=O)C(F)(F)F` (centres unmarked) [Compound 292], for which the “Plant response rating, Ryegrass, Italian” value in assay [1] (setting [6]) is reported as 60; in [1] (setting [7]) it was 100. Also, the “Plant response rating, Kochia” value was 30 in the assay with kochia (Bassia scoparia) (setting [6]) and 80 in the assay on kochia (Bassia scoparia) (setting [7]). In addition, the “Plant response rating, Foxtail, Giant” value turned out to be 50 in [2] (setting [6]); 100 in assay [2] (setting [7]); 0 in assay [3] (setting [8]); 30 in [3] (125 g ai/ha, 0 to 100 scale). Also, the “Plant response rating, Rice (0 to 100 scale, 0 is no effect, 100 is complete control)” value in the assay on rice (Oryza sativa) is on record as 0. Also, the “Plant response rating, Wheat” value in assay [4] (setting [6]) worked out at 20; in assay [4] (setting [7]) it was 90. Moreover, the “Plant response rating, Corn” value is given as 0 in the assay on corn (Zea mays) (setting [8]) and 0 with corn (Zea mays) (125 g ai/ha, 0 to 100 scale). Moreover, the “Plant response rating, Horseweed” value in [5] (setting [8]) is recorded as 0; in assay [5] (125 g ai/ha, 0 to 100 scale) it was 30. In addition, the “Plant response rating, Soybean” value in the assay on soybean (Glycine max) (setting [8]) turned out to be 20; in the assay on soybean (Glycine max) (125 g ai/ha, 0 to 100 scale) it was 80.
For `Cc1cc(C)c(N(C(=O)OC(C)C)S(=O)(=O)C(F)(F)F)cc1C1=NOC2CCCC12` (centres unmarked) [Compound 295], the “Plant response rating, Ryegrass, Italian” value in assay [1] (setting [6]) came to 40; in assay [1] (setting [7]), 70. For the same molecule, the “Plant response rating, Kochia” value in the assay on kochia (Bassia scoparia) (setting [6]) worked out at 0; in the assay on kochia (Bassia scoparia) (setting [7]) it was 30. The “Plant response rating, Foxtail, Giant” value in [2] (setting [6]) turned out to be 0; in assay [2] (setting [7]), 40; in assay [3] (setting [8]), 0; in [3] (125 g ai/ha, 0 to 100 scale), 10. Besides, the “Plant response rating, Rice (0 to 100 scale, 0 is no effect, 100 is complete control)” value in the assay on rice (Oryza sativa) is on record as 0. The results for the “Plant response rating, Wheat” value in [4] (setting [6]) and in assay [4] (setting [7]) were 0 and 30, respectively. Also, the “Plant response rating, Corn” value in the assay on corn (Zea mays) (setting [8]) is given as 0; with corn (Zea mays) (125 g ai/ha, 0 to 100 scale), 0. Moreover, the “Plant response rating, Horseweed” value in assay [5] (setting [8]) amounted to 10; in assay [5] (125 g ai/ha, 0 to 100 scale) it was 50. In addition, the “Plant response rating, Soybean” value in the assay with soybean (Glycine max) (setting [8]) stood at 20; in the assay with soybean (Glycine max) (125 g ai/ha, 0 to 100 scale) it was 50.
In the case of `Cc1cc(C)c(N(S(=O)(=O)C(F)(F)F)S(=O)(=O)C(F)(F)F)cc1C1=NOC2COCC12` (centres unmarked) [Compound 296], the “Plant response rating, Ryegrass, Italian” value in [1] (setting [6]) is listed as 0; in assay [1] (setting [7]) it was 90. Besides, the “Plant response rating, Kochia” value in the assay with kochia (Bassia scoparia) (setting [6]) was 60; in the assay on kochia (Bassia scoparia) (setting [7]), 90. Further, the “Plant response rating, Foxtail, Giant” value worked out at 30 in [2] (setting [6]); 100 in assay [2] (setting [7]); 0 in assay [3] (setting [8]); 10 in assay [3] (125 g ai/ha, 0 to 100 scale). Moreover, the “Plant response rating, Rice (0 to 100 scale, 0 is no effect, 100 is complete control)” value in the assay with rice (Oryza sativa) is 0. Besides, the “Plant response rating, Wheat” value in assay [4] (setting [6]) is 10; in assay [4] (setting [7]), 90. Further, the “Plant response rating, Corn” value is reported as 0 in the assay on corn (Zea mays) (setting [8]) and 0 with corn (Zea mays) (125 g ai/ha, 0 to 100 scale). Besides, the “Plant response rating, Horseweed” value in assay [5] (setting [8]) stood at 70; in [5] (125 g ai/ha, 0 to 100 scale), 80. Moreover, the “Plant response rating, Soybean” value is 30 in the assay on soybean (Glycine max) (setting [8]) and 40 in the assay on soybean (Glycine max) (125 g ai/ha, 0 to 100 scale).
`Cc1cc(C)c(C2=NOC3COCC23)cc1NS(=O)(=O)C(F)(F)F` (centres unmarked) [Compound 297]: the “Plant response rating, Ryegrass, Italian” value in assay [1] (setting [6]) came out at 0; in [1] (setting [7]) it was 90. The results for the “Plant response rating, Kochia” value in the assay on kochia (Bassia scoparia) (setting [6]) and with kochia (Bassia scoparia) (setting [7]) were 80 and 90, respectively. For the same molecule, the “Plant response rating, Foxtail, Giant” value in assay [2] (setting [6]) stood at 80; in assay [2] (setting [7]) it was 100; in [3] (setting [8]), 10; in assay [3] (125 g ai/ha, 0 to 100 scale), 60. The “Plant response rating, Rice (0 to 100 scale, 0 is no effect, 100 is complete control)” value in the assay on rice (Oryza sativa) came to 0. Further, the “Plant response rating, Wheat” value was 20 in [4] (setting [6]) and 100 in assay [4] (setting [7]). Besides, the “Plant response rating, Corn” value in the assay with corn (Zea mays) (setting [8]) came to 0; in the assay on corn (Zea mays) (125 g ai/ha, 0 to 100 scale) it was 0. Also, the “Plant response rating, Horseweed” value was determined as 50 in assay [5] (setting [8]) and 80 in assay [5] (125 g ai/ha, 0 to 100 scale). The “Plant response rating, Soybean” value in the assay on soybean (Glycine max) (setting [8]) stood at 30; in the assay with soybean (Glycine max) (125 g ai/ha, 0 to 100 scale), 50.
